Patent publication US4016148A, “Peptide derivatives of phosphonic and phosphinic acids and intermediates therefor” (Hoffmann-La Roche Inc., priority 1975, dated 1977)
Residues, ends and D or L forms follow the SMILES beside them.

What was measured:
E. coli [1] = assay: Potentiation of antibiotics by the peptide derivative: MIC and fractional inhibitory concentration index against E. coli in Davis minimal medium; assay type: cell-based; conditions: for Fractional Inhibitory Concentration Index: antibiotic in combination with (1R)-1-(L-alanylamino)-ethylphosphonic acid; for Minimum Inhibitory Concentration, Antibiotic + peptide derivative: concentration of the antibiotic: in combination with (1R)-1-(L-alanylamino)-ethylphosphonic acid
Excerpt: The peptide derivatives provided by this invention potentiate the activity of antibiotics (e.g. penicillin and cephalosporin antibiotics and D-cycloserine). Thus, for example the fractional inhibitory concentration indices of (1R)-1-(L-alanylamino)-ethylphosphonic acid in combination with a cephalosporin, with a penicillin antibiotic and with D-cycloserine against E. coli in Davis minimal medium are given in Table 1.

E. coli [2] = assay: Fractional inhibitory concentration indices of peptide derivatives in a 2:1 ratio with D-cycloserine against E. coli in Davis minimal medium; assay type: cell-based; conditions: peptide derivative in a 2:1 ratio with D-cycloserine
Excerpt: Again, for example, the fractional inhibitory concentration indices of (1R)-1-(L-alanylamino)-ethylphosphonic acid (Derivative A), (1R)-1-(L-alanyl-L-alanylamino)-ethylphosphonic acid (Derivative B), (1R)-1-(L-alanyl-L-alanyl-L-alanylamino)-ethylphosphonic acid (Derivative C), (1R)-1-(L-alanyl-L-alanyl-L-alanyl-L-alanylamino)-ethylphosphonic acid (Derivative D), (1R)-1-(L-phenylalanylamino)-ethylphosphonic acid (Derivative E), (1R)-1-(L-valylamino)-ethylphosphonic acid (Derivative F) and (1R)-1-(L-leucylamino)-ethylphosphonic acid (Derivative G) in a 2:1 ratio with D-cycloserine against E. coli in Davis minimal medium are given in Table 2.

SMILES	Minimum Inhibitory Concentration, Antibiotic alone (E. coli [1])	Fractional Inhibitory Concentration Index (E. coli [1])	Minimum Inhibitory Concentration, Antibiotic + peptide derivative: concentration of the antibiotic (E. coli [1])	Fractional Inhibitory Concentration Index (E. coli [2])	Fractional Inhibitory Concentration of D-cycloserine (E. coli [2])	also measured
CC1(C)S[C@@H]2[C@H](NC(=O)[C@H](N)c3ccc(O)cc3)C(=O)N2[C@H]1C(=O)O [Amoxycillin]	4 µg/mL	0.3	1 µg/mL			
CC1=C(C(=O)O)N2C(=O)[C@@H](NC(=O)[C@H](N)C3=CCC=CC3)[C@H]2SC1 [Cephradine]	16 µg/mL	0.5	4 µg/mL			
N[C@@H]1CONC1=O [D-Cycloserine]	64 µg/mL	0.25	0.25 µg/mL			
C[C@H](N)C(=O)N[C@@H](C)P(=O)(O)O [Derivative A, (1R)-1-(L-alanylamino)-ethylphosphonic acid]				0.3	0.06	Minimum Inhibitory Concentration, Antibiotic + peptide derivative: concentration of the peptide derivative (E. coli [1]; in combination with Amoxycillin): 0.06 µg/mL; Minimum Inhibitory Concentration, Antibiotic + peptide derivative: concentration of the peptide derivative (E. coli [1]; in combination with Cephradine): 0.25 µg/mL; Minimum Inhibitory Concentration, Antibiotic + peptide derivative: concentration of the peptide derivative (E. coli [1]; in combination with D-Cycloserine): 0.25 µg/mL
C[C@H](N)C(=O)N[C@@H](C)C(=O)N[C@@H](C)P(=O)(O)O [Derivative B, (1R)-1-(L-alanyl-L-alanylamino)-ethylphosphonic acid]				0.2	0.03	
C[C@H](N)C(=O)N[C@@H](C)C(=O)N[C@@H](C)C(=O)N[C@@H](C)P(=O)(O)O [Derivative C, (1R)-1-(L-alanyl-L-alanyl-L-alanylamino)-ethylphosphonic acid]				0.1	0.05	
C[C@H](N)C(=O)N[C@@H](C)C(=O)N[C@@H](C)C(=O)N[C@@H](C)C(=O)N[C@@H](C)P(=O)(O)O [Derivative D, (1R)-1-(L-alanyl-L-alanyl-L-alanyl-L-alanylamino)-ethylphosphonic acid] (HELM PEPTIDE1{A.A.A.A.[C[C@H](N[*:1])P(=O)(O)O]}$$$$V2.0)				0.2	0.10	
C[C@H](NC(=O)[C@@H](N)Cc1ccccc1)P(=O)(O)O [Derivative E, (1R)-1-(L-phenylalanylamino)-ethylphosphonic acid]				0.48	0.13	
CC(C)[C@H](N)C(=O)N[C@@H](C)P(=O)(O)O [Derivative F, (1R)-1-(L-valylamino)-ethylphosphonic acid]				0.60	0.13	
CC(C)C[C@H](N)C(=O)N[C@@H](C)P(=O)(O)O [Derivative G, (1R)-1-(L-leucylamino)-ethylphosphonic acid]				0.27	0.12	
